Experimental data from PubChem BioAssay (NCI).
Where “and” joins values, the source holds several entries; their conditions need not be identical. Equal values may be shown once.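 Cultured in 96-well plates, cells were exposed to test compound for 48 hours across five concentrations. Here, GI50 denotes the concentration required for 50% inhibition of growth. TGI marks complete inhibition of growth.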

Experiments:
Experiment in all cases: NCI tumour cell line growth inhibition, 48 h
DLD-1 colon = system: DLD-1 colon
DMS 273 small cell lung = system: DMS 273 small cell lung
SNB-78 CNS = system: SNB-78 CNS
M19-MEL melanoma = system: M19-MEL melanoma
HOP-18 NSCLC = system: HOP-18 NSCLC
XF 498 CNS = system: XF 498 CNS
KM20L2 colon = system: KM20L2 colon
MDA-N = system: MDA-N
RXF-631 renal = system: RXF-631 renal
P388 leukemia = system: P388 leukemia
P388/ADR leukemia = system: P388/ADR leukemia
SN12K1 renal = system: SN12K1 renal

Structure (SMILES)	TGI (DLD-1 colon) [µM]	TGI (DMS 273 small cell lung) [µM]	TGI (SNB-78 CNS) [µM]	TGI (M19-MEL melanoma) [µM]	TGI (HOP-18 NSCLC) [µM]	TGI (XF 498 CNS) [µM]	TGI (KM20L2 colon) [µM]	TGI (MDA-N)	also measured
O=C(NCC(O)CNC(=O)C(F)(F)F)C(F)(F)F	> 100	> 100	> 100	> 100	> 100	> 100	> 100	–	–
CSc1ncnc2c1ncn2C1OC(CO)C(O)OC1O (stereo not drawn)	–	–	–	–	–	–	–	27.7 µM	–
CC[C@@]1(O)C(=O)OCc2c1cc1n(c2=O)Cc2c-1nc1cc3c(cc1c2C)OCO3	–	–	–	–	–	–	–	> 100 µM	–
NC1=NCCN1CC(=O)O	–	–	–	–	–	–	–	> 10000 µM	–
COc1ccc2nc3ccccc3c(NCCCN(C)CCCl)c2c1	3.68	1.36	2.27	1.9	–	0.77	2.5	2.02 µM	TGI (RXF-631 renal): 2.15 µM
CC(C)(C)OC(=O)NC(CO)c1cccc(OCc2ccccc2)c1 (stereo not drawn)	> 100	> 100	> 100	> 100	> 100	> 100	> 100	–	–
COc1ccc(OC(C(=O)O)c2ccccc2)c2c1CCCC2=O (stereo not drawn)	> 100	> 100	> 100	> 100	> 100	> 100	> 100	–	TGI (RXF-631 renal): > 100 µM
CNC(=O)c1cccc2c(Nc3ccc(NS(C)(=O)=O)cc3OC)c3cccc(C)c3nc12	–	1.69	–	8.54	3.36	3.25	3.72	–	TGI (P388 leukemia): < 0.0384 µM; TGI (P388/ADR leukemia): 1.07 µM; TGI (SN12K1 renal): 1.61 µM
O=c1oc2ccc(-n3c(=O)c4ccccc4c4ccccc4c3=O)cc2c2ccccc12	–	–	–	–	–	–	–	> 100 µM	–
c1ccc2c(c1)[nH]c1c2nc2ncccn21	> 100	> 100	> 100	> 100	–	> 100	> 100	–	TGI (RXF-631 renal): > 100 µM
O=c1oc(=O)c2oc3ccccc3oc1=2	> 100	> 100	–	> 100	> 100	> 100	> 100	–	–
O=C(NC1C2CC3CC(C2)CC1C3)c1cc(/C=C/c2ccccc2)[nH]c(=S)n1 (stereo not drawn)	> 100	> 100	> 100	> 100	–	> 100	> 100	–	TGI (RXF-631 renal): > 100 µM
O=S(O)CCCSSc1ccccc1	> 100	> 100	> 100	> 100	> 100	> 100	> 100	–	–
O=C1CC(O)(c2ccccc2)C(c2ccccc2)=C1c1ccccc1 (stereo not drawn)	> 100	> 100	> 100	91.4	–	73.5	> 100	–	–
CCOC(=O)C(C)(C)C(O)C(C)C (stereo not drawn)	–	–	–	–	–	–	–	> 100 µM	–
CCC[CH2][Sn]1([CH2]CCC)[O]C(=O)c2ccc(C)cc2[O]1	1.98	2.62	2.34	1.33	2.19	–	2.46	–	GI50 (DLD-1 colon): 0.658 µM; GI50 (DMS 273 small cell lung): 0.55 µM; GI50 (SNB-78 CNS): 0.526 µM; GI50 (M19-MEL melanoma): 0.322 µM; GI50 (HOP-18 NSCLC): 1.01 µM; GI50 (RXF-631 renal): 0.138 µM; TGI (RXF-631 renal): 0.32 µM; GI50 (KM20L2 colon): 1.21 µM
N#C/C(=C/Sc1ccccc1)C(=O)O	> 100	72.6	59.5	74	> 100	> 100	91.2	–	–
S=c1nc(Cl)cc2[nH]c(Cl)cn12	–	–	–	–	–	–	–	4.56 µM	–

Structure (SMILES)	TGI (DLD-1 colon) [µM]	TGI (DMS 273 small cell lung) [µM]	TGI (SNB-78 CNS) [µM]	TGI (M19-MEL melanoma) [µM]	TGI (HOP-18 NSCLC) [µM]	TGI (XF 498 CNS) [µM]	TGI (KM20L2 colon) [µM]	TGI (MDA-N)	also measured
COc1cc(O)c2c(c1)C(=O)c1cc3c(c(O)c1C2=O)C(OC1OC(C)C(O)C(O)C1OC)C(OC)C(C)(O)C3=O (stereo not drawn)	11.6	3.85	16.1	1.83	15.4	7.13	6	–	TGI (P388 leukemia): 25.2 µM; TGI (P388/ADR leukemia): 59.6 µM; TGI (SN12K1 renal): 7.14 µM
O=c1c2ccccc2c2ccccc2c(=O)n1Cc1ccc2c(c1)OCO2	–	–	–	–	–	–	–	28.7 µM	–
COC(=O)c1ccc(Cl)cc1NC(=O)C1CCCCC1	–	> 100	> 100	> 100	–	–	> 100	–	–
CN(C)CCOC(c1ccccc1)c1ccccc1	–	–	–	–	–	–	–	50.1 µM and > 100 µM	GI50 (MDA-N): 29.4 µM
N#CS.N=C=S.N=C=S.[Cu+2].[NH2-].[NH2-].[NH2-].[NH2-].c1ccc2ncccc2c1	–	–	–	–	–	–	–	> 100 µM	GI50 (MDA-N): > 100 µM
COc1ccc2oc(C(=O)O)c3c2c1CCC3	> 100	> 100	> 100	> 100	> 100	> 100	> 100	–	–
O=C1c2ccccc2C(=O)N1C/C=C/CO	> 100	> 100	> 100	> 100	> 100	–	> 100	–	–
S=C(N/N=C(/c1ccccc1)c1ccccn1)N1CCCCCC1	–	–	–	–	–	–	–	2.32 µM and 1.72 µM	GI50 (MDA-N): 0.217 µM
CCCCCCCCCCCCCCCCOP(=O)(O)OP(=O)(O)OCC1OC(n2ccc(N)nc2=O)C(O)C1O (stereo not drawn)	–	–	–	–	–	–	–	> 100 µM	–
OC1C2CCC1C1C3C=CC(C3)C21 (stereo not drawn)	> 100	> 100	> 100	> 100	> 100	> 100	> 100	–	–
CC1(C)CCC(C)(C)c2c1ccc(O)c2Cc1c(O)ccc2c1C(C)(C)CCC2(C)C	–	–	–	–	–	–	–	3.73 µM	–
NCCN1C(=O)C2C3c4ccccc4C(c4ccccc43)C2C1=O (stereo not drawn)	> 100	> 100	> 100	> 100	> 100	–	> 100	–	–
C[n+]1ccc(-c2c3nc(c(-c4cc[n+](C)cc4)c4ccc([n-]4)c(-c4cc[n+](C)cc4)c4nc(c(-c5cc[n+](C)cc5)c5ccc2[n-]5)C=C4)C=C3)cc1.[I-].[Zn+2]	84.3	> 100	69.6	28.3	41.3	–	> 100	–	GI50 (DLD-1 colon): 29.3 µM; GI50 (DMS 273 small cell lung): 33.7 µM; GI50 (SNB-78 CNS): 23.3 µM; GI50 (M19-MEL melanoma): 10.3 µM; GI50 (HOP-18 NSCLC): 16.9 µM; GI50 (RXF-631 renal): 17.1 µM; TGI (RXF-631 renal): 46.8 µM; GI50 (KM20L2 colon): 23.1 µM
COc1ccc2c(c1OC)OCC(CN(C)C)C2=O (stereo not drawn)	–	–	–	–	–	–	–	32.4 µM	–
COc1ccc(CNc2nc3cc(N)cc(N)c3nc2-c2ccccc2)cc1	–	–	–	–	–	–	–	27.7 µM	GI50 (MDA-N): 14.2 µM
CCOc1ccccc1NC(=O)CCc1n[nH]c(=S)o1	> 100	> 100	> 100	> 100	–	> 100	> 100	–	–
COc1cc2c(cc1OC)C(=O)Cc1ccc(OC)c(OC)c1CN(C)CC2	> 100	> 100	> 100	> 100	> 100	> 100	> 100	–	TGI (RXF-631 renal): > 100 µM
